SMILES strings stand for the structures.

Chain of Met (P08581 1078-1345 limits assumed): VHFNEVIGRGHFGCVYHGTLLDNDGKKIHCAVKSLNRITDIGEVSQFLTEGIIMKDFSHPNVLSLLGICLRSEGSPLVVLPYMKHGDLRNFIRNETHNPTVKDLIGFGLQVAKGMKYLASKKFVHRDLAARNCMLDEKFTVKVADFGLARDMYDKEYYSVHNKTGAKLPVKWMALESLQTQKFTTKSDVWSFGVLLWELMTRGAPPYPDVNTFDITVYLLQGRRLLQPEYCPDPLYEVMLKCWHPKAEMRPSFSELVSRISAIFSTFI

In this assay the target is Met (Homo sapiens, UniProt P08581). The assay can be described thus: MET Luminescence-based Enzyme Assay (Kinase-Glo). In kind it is biochemical. On the set-up: Sf9 insect cell culture expressing the kinase domain of human Met; 6x Histidine tag (TEV-cleavable) (cleaved yes); made in house; host or cells: Sf9 insect cells. The text has this:
Homogeneous luminescence-based inhibitor screening assays were developed for c-Abl, MET, AurA, and PDK1 kinases (among others). Each of these assays made use of an ATP depletion assay (Kinase-Glo™, Promega Corporation, Madison, Wis.) to quantitate kinase activity. The Kinase-Glo™ format uses a thermostable luciferase to generate luminescent signal from ATP remaining in solution following the kinase reaction. The luminescent signal is inversely correlated with the amount of kinase activity.
Dose response was analyzed using the equation: y=min+{(max−min)/(1 +10^[compound]-logIC50)}, where y is the observed initial slope, max=the slope in the absence of inhibitor, min=the slope at infinite inhibitor, and the IC50 is the [compound] that corresponds to ½ the total observed amplitude (Amplitude=max−min).
The cell pellets produced from half of a 12 L Sf9 insect cell culture expressing the kinase domain of human Met were resuspended in a buffer containing 50 mM Tris-HCl pH 7.7 and 250 mM NaCl, in a volume of approximately 40 ml per 1 L of original culture. One tablet of Roche Complete, EDTA-free protease inhibitor cocktail (Cat# 1873580) was added per 1 L of original culture. The suspension was stirred for 1 hour at 4° C. Debris was removed by centrifugation for 30 minutes at 39,800×g at 4° C. The supernatant was decanted into a 500 ml beaker and 10 ml of 50% slurry of Qiagen Ni-NTA Agarose (Cat# 30250) that had been pre-equilibrated in 50 mM Tris-HCl pH 7.8, […], 10% Glycerol, 10 mM Imidazole, and 10 mM Methionine, were added and stirred for 30 minutes at 4° C. The sample was then poured into a drip column at 4° C. and washed with 10 column volumes of 50 mM Tris-HCl pH 7.8, 500 mM NaCl, 10% Glycerol, 10 mM Imidazole, and 10 mM Methionine. The protein was eluted using a step gradient with two column volumes each of the same buffer containing 50 mM, 200 mM, and 500 mM Imidazole, sequentially. The 6× Histidine tag was cleaved overnight using 40 units of TEV protease (Invitrogen Cat# 10127017) per 1 mg of protein while dialyzing in 50 mM Tris-HCl pH 7.8, 500 mM NaCl, 10% Glycerol, 10 mM Imidazole, and 10 mM Methionine at 4° C. The 6× Histidine tag was removed by passing the sample over a Pharmacia 5 ml IMAC column (Cat# 17-0409-01) charged with Nickel and equilibrated in 50 mM Tris-HCl pH 7.8, 500 mM NaCl, 10% Glycerol, 10 mM Imidazole, and 10 mM Methionine. The cleaved protein bound to the Nickel column at a low affinity and was eluted with a step gradient. The step gradient was run with 15% and then 80% of the B-side (A-side=50 mM Tris-HCl pH 7.8, 500 mM NaCl, 10% Glycerol, 10 mM Imidazole, and 10 mM Methionine; B-side=50 mM Tris-HCl pH 7.8, 500 mM NaCl, 10% Glycerol, 500 mM Imidazole, and 10 mM Methionine) for 4 column volumes each. The Met protein eluted in the first step (15%), whereas the non-cleaved Met and the cleaved Histidine tag eluted in the 80% fractions. The 15% fractions were pooled after SDS-PAGE gel analysis confirmed the presence of cleaved Met; further purification was done by gel filtration chromatography on an Amersham Biosciences HiLoad 16/60 Superdex 200 prep grade (Cat# 17-1069-01) equilibrated in 50 mM Tris-HCl pH 8.5, 150 mM NaCl, ˜10% Glycerol and 5 mM DTT. The cleanest fractions were combined and concentrated to ˜10.4 mg/ml by centrifugation in an Amicon Ultra-15 10,000 Da MWCO centrifugal filter unit (Cat# UFC901024).
MET Luminescence-based Enzyme Assay
Materials: Poly Glu-Tyr (4:1) substrate (Sigma Cat# P-0275), ATP (Sigma Cat#A-3377, FW=551), HEPES buffer, pH 7.5, Bovine serum albumin (BSA) (Roche 92423420), MgCl2, Staurosporine (Streptomyces sp. Sigma Cat#85660-1MG), white Costar 384-well flat-bottom plate (VWR Cat#29444-088). MET kinase (see below), Kinase-Glo™ (Promega Cat#V6712).
Stock Solutions: 10 mg/ml poly Glu-Tyr in water, stored at −20° C.; 100 mM HEPES buffer, pH 7.5 (5 ml 1M stock+45 ml miliQH2O); 10 mM ATP (5.51 mg/ml in dH2O) stored at −20° C. […]
On the technique in general: Kinase-Glo reads ATP consumption through a luciferase reaction.
Turning to `O=C(Nc1cc[nH]n1)Nc1nc2[nH]nc(-n3cncc3-c3ccccc3Cl)c2s1` [1-{3-[5-(2-Chloro-phenyl)-imidazol-1-yl]-1H-pyrazolo[3,4-d]thiazol-5-yl}-3-(1H-pyrazol-3-yl)-urea], the IC50 is more than 10 µM.
`O=C(Nc1nc2[nH]nc(-n3cncc3-c3ccc4ccccc4c3)c2s1)C1CC1` [Cyclopropanecarboxylic acid [3-(5-naphthalen-2-yl-imidazol-1-yl)-1H-pyrazolo[3,4-d]thiazol-5-yl]-amide] displayed an IC50 of 1 to 10 µM.
The result for `O=C(Nc1nc2[nH]nc(-n3cncc3-c3ccccc3)c2s1)C1CC1` [Cyclopropanecarboxylic acid [3-(5-phenyl-imidazol-1-yl)-1H-pyrazolo[3,4-d]thiazol-5-yl]-amide] reads more than 10 µM; that for `O=C(Nc1nc2[nH]nc(-n3cncc3-c3ccccn3)c2s1)C1CC1` [Cyclopropanecarboxylic acid [3-(5-pyridin-2-yl-imidazol-1-yl)-1H-pyrazolo[3,4-d]thiazol-5-yl]-amide], more than 10 µM; that for `O=C(Nc1nc2[nH]nc(-n3cncc3-c3cc(Cl)cc(Cl)c3Cl)c2s1)C1CC1` [Cyclopropanecarboxylic acid {3-[5-(2,3,5-trichloro-phenyl)-imidazol-1-yl]-1H-pyrazolo[3,4-d]thiazol-5-yl}-amide], 1 to 10 µM.
In the case of `O=C(Nc1nc2[nH]nc(-n3cncc3-c3c(Cl)ccc(Cl)c3Cl)c2s1)C1CC1` [Cyclopropanecarboxylic acid {3-[5-(2,3,6-trichloro-phenyl)-imidazol-1-yl]-1H-pyrazolo[3,4-d]thiazol-5-yl}-amide], the IC50 lay in the range of 1 to 10 µM.
`O=C(Nc1nc2[nH]nc(-n3cncc3-c3cccc(F)c3F)c2s1)C1CC1` [Cyclopropanecarboxylic acid {3-[5-(2,3-difluoro-phenyl)-imidazol-1-yl]-1H-pyrazolo[3,4-d]thiazol-5-yl}-amide] registered an IC50 of 1 to 10 µM.
For the compound `O=C(Nc1nc2[nH]nc(-n3cncc3-c3c(Cl)cccc3Cl)c2s1)C1CC1` [Cyclopropanecarboxylic acid {3-[5-(2,6-dichloro-phenyl)-imidazol-1-yl]-1H-pyrazolo[3,4-d]thiazol-5-yl}-amide], the IC50 fell in the range of 1 to 10 µM.
The compound `COc1ccc2nc(Cl)c(-c3cncn3-c3n[nH]c4nc(NC(=O)C5CC5)sc34)cc2c1` [Cyclopropanecarboxylic acid {3-[5-(2-chloro-6-methoxy-quinolin-3-yl)-imidazol-1-yl]-1H-pyrazolo[3,4-d]thiazol-5-yl}-amide] displayed an IC50 of 0.1 to 1 µM.
Compound `O=C(Nc1nc2[nH]nc(-n3cncc3-c3ccccc3Cl)c2s1)C1CC1` [Cyclopropanecarboxylic acid {3-[5-(2-chloro-phenyl)-imidazol-1-yl]-1H-pyrazolo[3,4-d]thiazol-5-yl}-amide] came in with an IC50 of 0.1 to 1 µM.
With `NC(=O)COc1ccc(-c2cncn2-c2n[nH]c3nc(NC(=O)C4CC4)sc23)c(Cl)c1` [Cyclopropanecarboxylic acid {3-[5-(4-carbamoylmethoxy-2-chloro-phenyl)-imidazol-1-yl]-1H-pyrazolo[3,4-d]thiazol-5-yl}-amide], the IC50 is 0.1 to 1 µM.
For `CS(=O)(=O)c1ccc(F)cc1-c1cncn1-c1n[nH]c2nc(NC(=O)C3CC3)sc12` [Cyclopropanecarboxylic acid {3-[5-(5-fluoro-2-methanesulfonyl-phenyl)-imidazol-1-yl]-1H-pyrazolo[3,4-d]thiazol-5-yl}-amide], the IC50 is more than 10 µM.

What is called IC50 is the concentration that gives 50% inhibition.

These data come from patent US20070173488A1, “Pyrazolothiazole Protein Kinase Modulators” (SGX Pharmaceuticals, Inc., priority 2005, published 2007).
